Experimental data: patent publication US8242115B2, “Materials and methods to potentiate cancer treatment” (Luitpold Pharmaceuticals, Inc., priority 2000, dated 2012)
Read-outs that look alike come from different tables or passages of the source.

Key:
[1] = biological target: T1, human DNA-PK (Homo sapiens, UniProt P78527); test: Standard DNA-PK assay (p53 peptide phosphorylation); assay type: biochemical
T1 construct: The frozen HeLa cell pellet was thawed at 37° C. and immediately centrifuged; endogenous in cells; host or cells: HeLa S3 cells (ATCC CCL-2.2); Endogenous enzyme purified via S100-2 fraction, Q-Sepharose FF and SP-Sepharose FF (fraction IV)
Description: Reactions were carried out at room temperature. Reactions were started by addition of ATP and stopped by application to phosphocellulose paper. Reaction products spotted onto phosphocellulose paper were washed five times with a total volume of at least 250 mL 10% acetic acid or 150 mM phosphoric acid. The paper was air dried and radioactivity was determined in a Beckman LS6000IC scintillation counter.

[2] = tested on: cultured human tumor cell lines (Table 4) and normal human fibroblast cell line MRC5; test: Cellular toxicity, MTS dye metabolism assay; conditions: 200 μM continuously for 48 h
Description: Cultured cells were distributed on 96-well microtiter plates and allowed to adhere for at least 16 h.

[3] = Pharmacokinetic analysis after subcutaneous administration; assay type: in vivo, mice
[4] = tested on: Colon carcinoma cells (HCT116)
[5] = tested on: DR3 cells (cultured mouse B-lymphocytes); test: V(D)J recombination assay; assay type: cell-based; conditions: 50 μM
Description: Recombination assays were performed as previously described (Leu et al., Mol. Cell. Biol 15:5657-5670 (1995)). […] Cells were concentrated and washed in HBS (containing 30 mM HEPES-KOH, pH 7.5, 140 mM NaCl, and 5 mM KCl) and resuspended in HBS at a density of 2.0×10^8 cells/mL. Cells (1.0×10^7) were transiently transfected by electroporation with 10 μg of the recombination substrate pJH200 (Leu et al., Mol. Cell. Biol. 15:5657-5670 (1995)) and transferred to a 90 mm cell culture dish containing 8 mL media with or without 2-hydroxy-4-morpholin-4-yl-benzaldehyde as described above. After 2 days, cells were removed from the dish with a rubber policeman, concentrated, washed one time with PBS, and resuspended in 0.1 mL lysis buffer (0.3% Triton X-100, 50 mM Tris-HCl, pH 7.5, 50 mM EDTA). Following a five min incubation at room temperature, cellular debris was removed by centrifugation at 12,000 rpm for two min in a microfuge. The supernatant was extracted sequentially with phenol and chloroform/[…] (24:1), after which, one tenth volume 3 M sodium acetate and 2 volumes cold 100% ethanol were added to the aqueous phase. Precipitated nucleic acid was collected by centrifugation at 12,000 rpm for 15 min and suspended in 25 μL water. An aliquot of the material was used to transform DH5α cells by electroporation. […]

[6] = tested on: HCT116 cells (human colon carcinoma) xenograft tumors; test: Animal tumor model, drug plus γ-radiation; assay type: in vivo, athymic BALB/c (nu/nu) mice; conditions: average tumor burden 500 mg; drug and 300 rad once daily for two days
Description: HCT116 cells (human colon carcinoma) were used to propagate xenograft tumors in 6-8 week old female athymic BALB/c (nu/nu) mice. Mice were maintained in a laminar airflow cabinet under pathogen-free conditions and fed sterile food and water ad libitum. HCT116 cells were grown to subconfluence in McCoy's media supplemented with 10% FBS, 100 U/mL penicillin, 100 μg/mL streptomycin, and 1.5 mM L-glutamine in a 5% CO2 humidified environment. Single cell suspensions were prepared in CMF-PBS (0.9 mM KCl, 2.7 mM KH2PO4, 13.8 mM NaCl, pH 7.5), and cell concentration adjusted to 4×10^7 cells/mL. Mice were inoculated subcutaneously (s.c.) on the right flank or right leg with a total of 4×10^6 cells (100 μL).
Mice were randomized (5 mice/group) into four treatment groups and used when tumors reached a weight of 75 to 100 mg (usually 7 to 11 days post-inoculation). Tumors were measured with vernier calipers and tumor weights were estimated using the empirically-derived formula below. Tumor weight(mg)=tumor length(mm)×tumor width(mm)^2/3.3. […] Tumor size was monitored every other day for the duration of the experiment.

[7] = tested on: thymocytes from BALB/c and BALB/c p53-/p53- mice; HL60, Jurkat, JY, B16/F10, WS1; test: Cell viability, trypan blue exclusion assay; assay type: cell-based, human and mouse; conditions: up to 32 μM (thymocytes), up to 25 μM (cell lines), several days
Description: Cell viability was also tested during drug treatment using the trypan blue exclusion assay. […] Cultured cells were incubated in the presence of varying concentrations of 2-hydroxy-4-morpholin-4-yl-benzaldehyde up to 32 μM. Cultured human and mouse cell lines were incubated in RPMI 1640 media containing 10% FBS, 100 U/mL penicillin and 100 μg/mL streptomycin at 37° C. with 5% CO2 in a humidified incubator with 2-hydroxy-4-morpholin-4-yl-benzaldehyde for several days. Tumor cell lines, HL60, Jurkat, JY and B16/F10 and the normal cell line WS1 were tested using this assay when incubated at drug concentrations up to 25 μM.

[8] = tested on: human colon carcinoma cell line HCT116; test: cells; assay type: cell-based; conditions: for GI50: Homo sapiens
Description: Cells plated at a density of 5,000 to 20,000 per well in 96-well microtiter plates were grown in RMPI 1640 containing 10% FBS, 100 U/mL penicillin and 100 μg/mL streptomycin, for 18 h at 37° C. in a humidified incubator with 5% CO2. Cells tested included ACHN, 786-0, HCT-116, SW620, SK-MEL-5, SK-MEL-28, A549, H322, OVCAR-3, SK-OV-3, MCF-7, MDA-MB-231, MOLT4, HL60, SNB-19, PC-3. Cells were treated with media containing chemotherapeutic drugs alone or with media containing chemotherapeutic drugs and a DNA-PK inhibitor of the invention, 1-(2-hydroxy-4-morpholin-4-yl-phenyl)-ethanone. Cells were incubated for two days before growth was measured using a tetrazolium dye assay (MTS). Chemotherapeutic drugs included bleomycin etoposide, vinblastine, doxorubicin, paclitaxel, cisplatin, chlorambucil, cyclophosphamide, 5-fluorouracil, cytosine-arabinoside, 6-mercaptoguanine and methotrexate (all purchased from Sigma). The drug concentration necessary to inhibit cell growth to 50% of untreated control cells was defined as the GI50.

[9] = read-out: IC50 (nM) DNA-PK Assay
[10] = with 1-(2-hydroxy-4-morpholin-4-yl-phenyl)-ethanone

Nc1cc(NN2CCOCC2)ccc1[N+](=O)[O-] [Example 16, N^1-Morpholin-4-yl-4-nitrobenzene-1,3-diamine]
IC50 [1, 9]: 1000 nM

Nc1cc(N2CCNCC2)ccc1[N+](=O)[O-] [Example 20, 2-Nitro-5-piperazin-1-yl-phenylamine]
IC50 [1, 9]: 10000 nM

O=C(O)c1ccc(N2CCOCC2)cc1O [Example 29, 2-Hydroxy-4-morpholin-4-yl-benzoic Acid]
IC50 [1, 9]: 500 nM

COC(=O)c1ccc(N2CCOCC2)cc1O [Example 30, 2-Hydroxy-4-morpholin-4-yl-benzoic Acid Methyl Ester]
IC50 [1, 9]: 500 nM

O=Cc1ccc(N2CCOCC2)cc1O [Example 32, 2-Hydroxy-4-morpholin-4-yl-benzaldehyde]
killing of cell lines, MTS dye metabolism assay [2]: no evidence of killing | IC50 [1, 9]: 400 nM | duration of high plasma concentration [3]: remained high for about one hour | sensitivity of HCT116 to killing by γ-radiation ([4]; 200 μM): increased the sensitivity | DNA rearrangement (V(D)J recombination) inhibited [5]: 8 fold | tumors shrank [6]: greater than 10 fold | cells sensitive to killing, trypan blue exclusion method [7]: In no instances were cells sensitive to killing

O=[N+]([O-])c1ccc(N2CCOCC2)cc1O [Example 33, 5-Morpholin-4-yl-2-nitro-phenol]
IC50 [1, 9]: 2000 nM

CCC(=O)c1ccc(N2CCOCC2)cc1O [Example 35, 1-(2-Hydroxy-4-morpholin-4-yl-phenyl)-propan-1-one]
IC50 [1, 9]: 120 nM

CC(C)CC(=O)c1ccc(N2CCOCC2)cc1O [Example 36, 1-(2-Hydroxy-4-morpholin-4-yl-phenyl)-3-methyl-butan-1-one]
IC50 [1, 9]: 150 nM

O=C(c1ccccc1)c1ccc(N2CCOCC2)cc1O [Example 37, 1-(2-Hydroxy-4-morpholin-4-yl-phenyl)-1-phenyl-methanone]
IC50 [1, 9]: 120 nM

O=C(c1ccc(N2CCOCC2)cc1O)C(F)(F)F [Example 38, 2,2,2-Trifluoro-1-(2-hydroxy-4-morpholin-4-yl-phenyl)-ethanone]
IC50 [1, 9]: 250 nM

CC(=O)c1ccc(N2CCOCC2)c(Cl)c1O [Example 42 B, 1-(3-Chloro-2-hydroxy-4-morpholin-4-yl-phenyl)-ethanone]
IC50 [1, 9]: 14000 nM

CC(=O)c1cc(F)c(N2CCOCC2)cc1O [Example 43 C, 1-(5-Fluoro-2-hydroxy-4-morpholin-4-yl-phenyl)-ethanone]
IC50 [1, 9]: 1500 nM

CC(=O)c1ccc(N2CCOCC2)c(F)c1O [Example 43 D, 1-(3-Fluoro-2-hydroxy-4-morpholin-4-yl-phenyl)-ethanone]
IC50 [1, 9]: 240 nM

COc1cc(N2CCOCC2)ccc1C=O [Example 46 A, 2-Methoxy-4-morpholin-4-yl-benzaldehyde]
IC50 [1, 9]: 10000 nM

COC(=O)c1cc(N2CCOCC2)ccc1O [Example 47, 2-Hydroxy-5-morpholin-4-yl-benzoic Acid Methyl Ester]
IC50 [1, 9]: 40000 nM

O/N=C/c1ccc(N2CCOCC2)cc1O [Example 48, 2-((Hydroxyimino)methyl)-5-morpholin-4-yl-phenol]
IC50 [1, 9]: 1000 nM

N/N=C/c1ccc(N2CCOCC2)cc1O [Example 49, 2-Hydrazonomethyl-5-morpholin-4-yl-phenol]
IC50 [1, 9]: 1000 nM

O=C(O)C(F)(F)F.O=C(O)c1ccc(CN2CCOCC2)cc1O [Example 52, 2-Hydroxy-4-morpholin-4-ylmethyl-benzoic Acid Trifluoroacetate]
melting point: 138 to 146 °C

O=C(O)CCCc1ccc(N(CCCl)CCCl)cc1 [chlorambucil]
GI50 ([8]; HCT-116, read-out: GI50, chemotherapeutic drug alone): 120 µM | GI50 ([8]; HCT-116, read-out: GI50, in the presence of DNA-PK inhibitor): 14 µM

C[C@@]12c3ccc4c(c3C(=O)c3occ(c31)C(=O)C[C@H]2O)CCC4=O [demethoxyviridin, reference compound]
IC50 ([1]; standard kinase reaction, read-out: IC50, enzyme activity inhibited): 5 nM

COc1cc([C@@H]2c3cc4c(cc3[C@@H](O[C@@H]3O[C@@H]5CO[C@@H](C)O[C@H]5[C@H](O)[C@H]3O)[C@H]3COC(=O)[C@H]23)OCO4)cc(OC)c1O [etoposide, reference compound]
GI50 ([8]; HCT-116, with 1-(2-hydroxy-4-morpholin-4-yl-phenyl)-ethanone, read-out: GI50, in the presence of DNA-PK inhibitor): 14 µM | GI50 ([8]; HCT-116, without DNA-PK inhibitor, read-out: GI50, chemotherapeutic drug alone): 120 µM | LD50 of etoposide without DNA-PK inhibitor ([4]; 24 h etoposide): 1.1 µM | LD90 of etoposide without DNA-PK inhibitor ([4]; 24 h etoposide): 2.9 µM | LD50 of etoposide with DNA-PK inhibitor [4, 10]: 0.075 µM | LD90 of etoposide with DNA-PK inhibitor [4, 10]: 0.9 µM

bleomycin
GI50, in the presence of DNA-PK inhibitor ([8]; 100 μM 1-(2-hydroxy-4-morpholin-4-yl-phenyl)-ethanone): 3×10^−2 units/mL | GI50, chemotherapeutic drug alone ([8]; without DNA-PK inhibitor): 2×10^−1 units/mL
